From US20220081435A1, “ANDROGEN RECEPTOR PROTEIN DEGRADERS” (THE REGENTS OF THE UNIVERSITY OF MICHIGAN, priority 2019, published 2022)

Columns and labels:
22RV1 cells = experiment: Cell growth inhibition in 22RV1 cells (WST-8 assay); assay type: cell-based
Experimental: 22RV1 cells were treated with a regular culture medium for 7 days. Cell viability was determined by a WST-8 assay.
Cell lines and Cell Culture: All the LNCaP, VCaP and 22RV1 cells used were purchased from American Type Culture Collection (ATCC). […] All of the cells were supplemented with 10% fetal bovine serum (Invitrogen) at 37° C. in a humidified 5% CO2 incubator.

AR protein = target: T1, AR protein (Homo sapiens, UniProt P10275, T878A); experiment: AR protein degradation in LNCaP cells (Western blotting); assay type: cell-based; details: for % AR protein degradation in LNCaP Cells: treatment time 6 h, average of three independent experiments
T1 construct: The percent AR protein degradation induced by these compounds at various concentrations in LNCaP cells; host or cells: LNCaP
T1 sequence (P10275 1-920 T878A): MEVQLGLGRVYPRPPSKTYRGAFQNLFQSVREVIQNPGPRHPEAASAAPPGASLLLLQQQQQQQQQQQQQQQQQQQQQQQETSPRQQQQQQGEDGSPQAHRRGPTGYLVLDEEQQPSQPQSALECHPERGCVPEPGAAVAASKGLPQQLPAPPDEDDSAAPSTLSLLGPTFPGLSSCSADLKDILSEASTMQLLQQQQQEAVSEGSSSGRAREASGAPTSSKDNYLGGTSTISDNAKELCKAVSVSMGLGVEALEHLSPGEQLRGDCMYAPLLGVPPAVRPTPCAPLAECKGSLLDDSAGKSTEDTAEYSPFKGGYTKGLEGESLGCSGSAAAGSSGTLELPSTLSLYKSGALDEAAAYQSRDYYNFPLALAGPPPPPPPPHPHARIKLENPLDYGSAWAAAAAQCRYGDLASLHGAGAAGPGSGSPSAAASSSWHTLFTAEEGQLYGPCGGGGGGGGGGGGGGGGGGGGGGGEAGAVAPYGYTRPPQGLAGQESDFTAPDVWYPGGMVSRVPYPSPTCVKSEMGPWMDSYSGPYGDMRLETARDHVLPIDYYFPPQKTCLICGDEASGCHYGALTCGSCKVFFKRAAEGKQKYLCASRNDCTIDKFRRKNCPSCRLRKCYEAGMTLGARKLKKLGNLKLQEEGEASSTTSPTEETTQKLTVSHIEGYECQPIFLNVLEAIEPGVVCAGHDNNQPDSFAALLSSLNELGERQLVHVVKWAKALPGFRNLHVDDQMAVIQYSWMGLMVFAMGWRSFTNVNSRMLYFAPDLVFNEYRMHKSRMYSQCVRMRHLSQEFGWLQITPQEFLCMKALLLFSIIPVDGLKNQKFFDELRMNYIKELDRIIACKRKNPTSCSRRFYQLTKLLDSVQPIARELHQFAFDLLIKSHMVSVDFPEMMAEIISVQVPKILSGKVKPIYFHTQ
In short: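 LNCaP cells were cultured with 10% FBS at 37° C and lysed in RIPA buffer after treatment. AR levels were measured by Western blot. Degradation percentage was quantified by densitometry as the background-corrected AR band relative to the loading control.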

Cc1ncsc1-c1ccc([C@H](CC(=O)N2CCC(N3CCC(C#Cc4ccc(C(=O)NC5C(C)(C)C(Oc6ccc(C#N)c(Cl)c6)C5(C)C)cc4)CC3)CC2)NC(=O)[C@@H]2C[C@@H](O)CN2C(=O)[C@@H](NC(=O)C2(F)CC2)C(C)(C)C)cc1 (stereo partly drawn) [Compound 34, (2S,4R)—N—((S)-3-(4-((4-(((1r,3r)-3-(3-Chloro-4-cyanophenoxy)-2,2,4,4-tetramethyl-cyclobutyl)carbamoyl)phenyl)ethynyl)-[1,4′-bipiperidin]-1′-yl)-1-(4-(4-methylthiazol-5-yl)phenyl)-3-oxopropyl)-1-((S)-2-(1-fluorocyclopropane-1-carboxamido)-3,3-dimethylbutanoyl)-4-hydroxypyrrolidine-2-carboxamide]
Potency relative to enzalutamide (4) and compound 6 in cell growth inhibition (22RV1 cells; 22RV1): > 100 times
IC50 (22RV1 cells; 22RV1, regular culture medium, 7 days): 183 nM
% AR protein degradation in LNCaP Cells (AR protein; 0.01 μM): 89%
% AR protein degradation in LNCaP Cells (AR protein; 0.1 μM): 99%
% AR protein degradation in LNCaP Cells (AR protein; 1 μM): 100%
AR degradation (AR protein; LNCaP, 10 nM, 24 h treatment): > 95%
Time to effective reduction of AR protein level (AR protein; LNCaP, 100 nM): ≤ 2 h
AR depletion with a 4 h treatment (AR protein; LNCaP, 100 nM, 4 h): near-complete AR depletion
DC50 (AR protein; LNCaP, 24 h treatment, read-out: DC50 (drug concentration that results in 50% protein degradation)): 0.86 nM
AR degradation (Western blotting, dose-dependent) (AR protein; LNCaP, at 10 nM): partial AR degradation
AR degradation (Western blotting, dose-dependent) (AR protein; LNCaP, at both 100 nM and 1 μM): essentially complete AR degradation
Rank as AR degrader among 32, 34 and 35 (AR protein; LNCaP, based upon the data obtained at 10 nM): most potent
AR degradation after pretreatment with AR antagonist (6), VHL-d, MLN4924 or MG132 (AR protein; LNCaP, data not shown): effectively blocked
